How the values were obtained:
[1] = target: T1, guinea pig liver-originated transglutaminase 2 (Cavia cutleri, UniProt P08587); assay: In vitro transglutaminase 2 assay (1), [1,4-14C] putrescine incorporation into succinylated casein; assay type: biochemical
T1 construct: 1 mU of guinea pig liver-originated transglutaminase 2 (Sigma, St. Louis, MO, USA); purchased Sigma; host or cells: guinea pig liver
T1 sequence (P08587 1-690): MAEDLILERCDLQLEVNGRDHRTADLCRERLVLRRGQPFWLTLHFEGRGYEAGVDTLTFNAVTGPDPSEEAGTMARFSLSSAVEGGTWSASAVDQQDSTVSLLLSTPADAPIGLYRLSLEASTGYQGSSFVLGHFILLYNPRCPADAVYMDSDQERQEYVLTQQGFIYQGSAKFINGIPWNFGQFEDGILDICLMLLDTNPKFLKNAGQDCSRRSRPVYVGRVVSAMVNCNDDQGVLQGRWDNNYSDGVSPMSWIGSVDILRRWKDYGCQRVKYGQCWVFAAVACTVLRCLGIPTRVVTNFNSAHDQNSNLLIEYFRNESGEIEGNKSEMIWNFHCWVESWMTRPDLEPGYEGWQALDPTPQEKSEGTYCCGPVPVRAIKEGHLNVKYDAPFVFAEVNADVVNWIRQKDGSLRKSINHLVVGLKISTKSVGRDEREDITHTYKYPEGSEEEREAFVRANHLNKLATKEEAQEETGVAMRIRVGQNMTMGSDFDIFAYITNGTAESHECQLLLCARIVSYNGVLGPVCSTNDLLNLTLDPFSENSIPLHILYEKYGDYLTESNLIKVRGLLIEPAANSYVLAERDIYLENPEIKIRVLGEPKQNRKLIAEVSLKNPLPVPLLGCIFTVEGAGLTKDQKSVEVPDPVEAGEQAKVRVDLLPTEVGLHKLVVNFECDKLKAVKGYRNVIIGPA
Method: Incorporation of [1,4-14C] putrescine into succinylated casein was measured to determine the inhibitory effect of each compound on the activity of transglutaminase 2 (TGase 2). 1 mU of guinea pig liver-originated transglutaminase 2 (Sigma, St. Louis, MO, USA) was preincubated with various concentrations of GK13 or GK921 in a 0.1 mL reaction buffer with or without 10 mM CaCl2 for 10 minutes, and 0.4 mL of a substrate solution containing 2% (w/v) succinylated casein and 100 nCi of [1,4-14C] putrescine. After incubation at 37° C. for 1 hour, 4 mL of cold (4° C.) 7.5% (w/v) trichloroacetic acid (TCA) was added to terminate the reaction. The TCA-insoluble precipitate was recovered with a GF/A-grade glass filter (Millipore, Billerica, MA, USA), washed with cold 5% (w/v) TCA, dried, and assessed with a scintillation counter (Beckman Coulter, Brea, CA, USA) to evaluate radiolabel binding. Transglutaminase 2 which was pre-incubated only with a buffer was used as a positive control. The scintillation counts were compared between the example and the positive control, and IC50 values were determined through the logistic linear regression method. The presented data were the mean values of three independent experiments. In this experimental example and the following experimental example, Streptonigrin (described as KN383 in each figure of the drawing), which is an existing transglutaminase 2 inhibitor, was used as a positive control.

[2] = system: ACHN cells; assay: Expression of cell proliferation inhibition-related and angiogenesis inhibition-related proteins, western blot; assay type: cell-based; conditions: various concentrations, 48 hours
Method: LDD3959 treatment at various concentrations was performed on ACHN cells, using a serum-free culture medium, and a reaction was performed at 37° C. in the presence of 5% CO2 for 2 hours. The culture medium was replaced with a culture medium containing 10% FBS, and a reaction was performed for 48 hours. The culture medium was removed, and PBS washing was performed. With the use of a solution obtained by adding a protease inhibitor cocktail and a phosphatase inhibitor cocktail to RIPA buffer (25 mM Tris*HCl pH 7.6, 150 mM NaCl, 1% NP-40, 1% sodium deoxycholate, and 0.1% SDS) was used to prepare whole cell lysates.
The proteins were quantified by Bicinchoninic acid (BCA) protein assay. The proteins were resolved by SDS-PAGE and transcribed into a polyvinylidene difluoride (PVDF) membrane. The membrane was then blocked with 5% BSA for 1 hour at room temperature, allowed to react with a labeled antibody overnight at 4° C., washed in PBS-T for 30 minutes at room temperature, and allowed to react with a horseradish peroxidase (HRP)-bound secondary antibody for 2 hours at room temperature. Finally, the membrane was washed in PBS-T for […] at room temperature and developed with enhanced chemiluminescence.

[3] = system: ACHN renal cancer cells; assay: Antitumor effect in in vivo renal cancerous tumors, ACHN xenograft, oral administration; parameters: species or system mice; conditions: oral administration daily
Method: (§1) To examine the antitumor effect of LDD3959, CanN.Cg-Foxn1nu/CrljOri mice were used as experimental animals. The mice were xenografted with ACHN renal cancer cells or CAKI-1 renal cancer cells to induce tumors. The ACHN renal cancer cell-transplanted group was orally administered with LDD3959, and the CAKI-1-transplanted group was intraperitoneally administered with LDD3959. In this test, the oral administration was performed daily and the intraperitoneal administration was performed twice a week.

[4] = system: CAKI-1 renal cancer cells; assay: Antitumor effect in in vivo renal cancerous tumors, CAKI-1 xenograft, intraperitoneal administration; parameters: species or system mice
Method: as §1

[5] = system: MDA-MB231 breast cancer cells; assay: Cell viability in breast cancer cell lines according to treatment time; assay type: cell-based; conditions: MDA-MB231, 24, 48 and 72 hours
Method: Breast cancer cells (50,000 cells/well, 100 μl) were cultured in 96-well microplates, and after 24 hours, LDD3959 was added to each well in various concentrations, using a serum-free cell culture medium. In each well, a reaction was performed at 37° C. in the presence of 5% CO2 for 2 hours.
Next, the existing culture medium was replaced with a culture medium containing 10% FSB, and 24, 48, and 72 hours of reactions were performed. After the completion of each reaction, the exiting culture medium was removed, a culture medium containing a water soluble tetrazolium (WST) salt was added, the plate was allowed to react at 37° C. in the presence of 5% CO2 for a duration in the range of 1 hour to 3 hours, and the absorbance was measured at 450 nm.

[6] = system: a total of 8 tumors; assay: OncoPanel assay conducted by Eurofins; assay type: cell-based
Method: The OncoPanel™ assay conducted by Eurofins confirmed the antitumor efficacy of LDD3959 in a total of 8 tumors at concentrations of 10 μM or lower.

[7] = Toxicity by single oral administration; assay type: in vivo, ICR mice; conditions: 500 to 2000 mg/kg
Method: LDD3959 was orally administered once for each concentration in the range of 500 to 2000 mg/kg, and adverse events (body weight changes, feed intake changes, general appearance changes) were checked for 2 weeks. After 2 weeks of administration, the mice were sacrificed. Then, the mice underwent hematological examination and measurement of weight change of each organ thereof. In addition, the same experiment was performed on five ICR female mice and five ICR male mice to identify gender-dependent differences.

O=C1C(Cl)=C(Cl)C(=O)c2[nH]c(-c3ccc(Br)c(F)c3)nc21 [LDD3959, 2-(4-bromo-3-fluorophenyl)-5,6-dichloro-1H-benzo[d]imidazole-4,7-dione]
mean value of the 2 μM LDD3959 ([1]; 2 μM, negative control 248.5, control 3606.5, standard deviation 0.01): 0.09
TGase2 enzyme activity inhibitory effect compared with streptonigrin (KN383, positive control) ([1]; same dose (2 μM)): two-fold or greater stronger TGase2 enzyme activity inhibitory effects than the control
Akt/mTOR signals [2]: inhibiting Akt/mTOR45 signals
NFκB complexes [2]: inhibiting NFκB complexes
tumor growth inhibitory effect [3]: concentration-dependent tumor growth inhibitory effects
tumor growth inhibitory effect ([4]; CAKI-1 xenograft, intraperitoneal administration twice a week): concentration-dependent tumor growth inhibitory effects
hematological examination ([4]; intraperitoneal administration group): no abnormal findings
apoptosis level according to time [5]: exhibited a low apoptosis level at the initial stage, but the apoptosis level increased
concentration with antitumor efficacy [6]: ≤ 10 µM
deaths ([7]; 2 weeks, female and male ICR mice): no deaths of the subjects occurred
adverse responses in blood ([7]; after 2 weeks): no specific adverse responses occurred in blood

Source: patent US20240300902A1, “NOVEL TRANSGLUTAMINASE 2 INHIBITOR AND USE THEREOF” (MD BIOLAB CO., LTD., priority 2021, published 2024)
